Active and inactive are the calls of the source. No cut-off for these calls is given here.
These molecules were tested on Hepatitis C virus (assay: Antiviral activity against HCV genotype 1b infected in human HuH7 cells assessed as total cellular RNA after 5 days by RT-PCR analysis). Details: Huh-7, 120 h.
Assay type: functional, organism-based, Hepacivirus hominis

Row | EC50 | SMILES
1 | 100 nM | COC(=O)N[C@@H](CC(C)C)C(=O)N1CCC[C@H]1c1ncc(-c2ccc(-c3ccccc3)cc2)[nH]1
2 | < 1 nM | COC(=O)N[C@H](C(=O)N1C[C@@H](SC)C[C@H]1c1ncc(-c2ccc(-c3ccc(-c4cnc([C@@H]5C[C@H](SC)CN5C(=O)[C@@H](NC(=O)OC)c5ccccc5)[nH]4)cc3)cc2)[nH]1)c1ccccc1
3 | 1 nM | C#Cc1ccc(-c2cn(-c3ccc(-c4cnc(-c5cnc([C@@H]6CCCN6C(=O)[C@@H](NC(=O)OC)C(C)C)[nH]5)[nH]4)cc3)nn2)cc1

The molecules below were run on Hepatitis C virus (assay: Antiviral activity against HCV infected in human HuH7 cells assessed as inhibition of RNA replication after 72 hrs by luciferase reporter gene assay). Details: Hepacivirus hominis; Huh-7.
Assay type: functional, organism-based

Row | SMILES | inhibition
4 | Cn1c(-c2cnccn2)c(C2CCCC2)c2ccc(C(=O)NC3(c4nc5ccc(/C=C/C(=O)O)cc5n4C4CCC4)CCCC3)cc21 | Active
5 | Cc1c(-c2ccccn2)n(C2CCCC2)c2ccc(C(=O)NC3(c4nc5cc(/C=C/C(=O)O)ccc5n4C)CCC3)cc12 | Active
6 | C/C(=C\c1ccc2nc(C3(NC(=O)c4ccc5c(C6CCCC6)c(-c6cccc7cc(C)[nH]c67)n(C)c5c4)CCC3)n(C)c2c1)C(=O)O | Active
7 | Cn1c(C2(NC(=O)c3ccc4c(C5CCCC5)c(-c5ccccn5)n(C)c4c3)CCC2)nc2cc(/C=C/C(=O)O)ccc21 | Active
